For 17 compounds, IC50, MIC and Ki results are on record in ChEMBL document CHEMBL1123679, “5-Quinone derivatives of 2'-deoxyuridine 5'-phosphate: inhibition and inactivation of thymidylate synthase, antitumor cell, and antiviral studies” (J Med Chem, 1987).

≈ marks a conversion by molar mass, not a printed value. Where only a bound is given, the exact number is not on record here.

For one test, the system named is L1210. Briefly: Ability to inhibit the proliferation or tumor cell growth by 50% of the murine leukemia L1210 cells was determined. The format is functional. The following applies: Mus musculus, read-out: ID50 (the source's name).
The species named for test [1] is Oryctolagus cuniculus. Briefly: Minimal inhibitory concentration against HSV-1 (F)-induced cytopathogenicity by 50% in rabbit kidney cell cultures. The test is classed as functional. (In general: Protection from cytopathic effect is a common read-out in antiviral testing.)
The species entered for test [2] is Oryctolagus cuniculus. Briefly: Minimal inhibitory concentration against HSV-1 (McIntyre)-induced cytopathogenicity by 50% in rabbit kidney cell cultures. The test is classed as functional.
The species named for test [3] is Oryctolagus cuniculus. The experiment in a line: Minimal inhibitory concentration against HSV-2 (196)-induced cytopathogenicity by 50% in rabbit kidney cell cultures. The format is functional.
For test [4], the species on record is Oryctolagus cuniculus. The experiment in a line: Minimal inhibitory concentration required to cause a microscopically detectable alteration of normal cell morphology of rabbit kidney cell cultures. The format is functional.
Test [5] is filed under the species Oryctolagus cuniculus. Briefly: Minimal inhibitory concentration against HSV-2 (Lyons)-induced cytopathogenicity by 50% in rabbit kidney cell cultures. The test is classed as functional.
A short description of test [6]: Ability to inhibit the proliferation or tumor cell growth by 50% of the human T-cell lymphoblast (Molt/4F) cells was determined. The format is functional. The following applies: read-out: ID50 (the source's name).
The species named for test [7] is Oryctolagus cuniculus. Briefly: Minimal inhibitory concentration against vesicular stomatitis virus-induced cytopathogenicity by 50% in rabbit kidney cell cultures. The format is functional.
The species named for test [8] is Oryctolagus cuniculus. Briefly: Minimal inhibitory concentration against HSV-1 (KOS)-induced cytopathogenicity by 50% in rabbit kidney cell cultures. The format is functional.
The species entered for test [9] is Oryctolagus cuniculus. The experiment in a line: Minimal inhibitory concentration against HSV-2 (G)-induced cytopathogenicity by 50% in rabbit kidney cell cultures. The test is classed as functional.
Test [10] concerns Raji. Briefly: Inhibition of human B-cell lymphoblast Raji cell proliferation. The format is functional. The following applies: read-out: ID50 (the source's name).
The species named for test [11] is Oryctolagus cuniculus. The experiment in a line: Minimal inhibitory concentration against vaccinia virus-induced cytopathogenicity by 50% in rabbit kidney cell cultures. The test is classed as functional.
For test [12], the system named is Raji. Briefly: Inhibition of human B-cell lymphoblast Raji cell proliferation; Value ranges from (10-55.6). The format is functional. The following applies: read-out: ID50 (the source's name).
Test [13] concerns the target T1, Thymidylate synthase (Lactobacillus casei, UniProt P00469).
T1 sequence (P00469 whole entry): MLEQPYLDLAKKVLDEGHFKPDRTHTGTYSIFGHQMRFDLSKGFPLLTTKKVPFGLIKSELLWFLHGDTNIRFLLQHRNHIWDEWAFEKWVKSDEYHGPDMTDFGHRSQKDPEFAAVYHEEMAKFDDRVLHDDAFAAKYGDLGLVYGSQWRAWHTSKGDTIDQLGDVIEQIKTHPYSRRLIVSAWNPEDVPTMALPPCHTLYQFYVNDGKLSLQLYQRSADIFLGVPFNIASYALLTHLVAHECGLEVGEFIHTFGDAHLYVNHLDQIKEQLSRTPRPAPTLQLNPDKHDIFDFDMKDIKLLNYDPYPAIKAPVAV
Briefly: Ability to inhibit the thymidylate synthase from Lactobacillus casei was determined and expressed as inhibition constant(Ki). Details: species or system Lacticaseibacillus casei.

The target in test [14] is Thymidylate synthase (Mus musculus, UniProt P07607). The experiment in a line: Ability to inhibit the thymidylate synthase from murine leukemia L1210 cells was determined and expressed as inhibition constant(Ki). The format is cell-based.
Test [15] concerns the target T1, Thymidylate synthase. The experiment in a line: Ability to inhibit the thymidylate synthase from Lactobacillus casei was determined and expressed as inhibition constant (Ki). Details: species or system Lacticaseibacillus casei.
For test [16], the species on record is Oryctolagus cuniculus. The experiment in a line: Minimal inhibitory concentration required to cause a microscopically detectable alteration of normal cell morphology of rabbit kidney cell culture. The test is classed as functional.

Chain of Thymidylate synthase (Mus musculus, UniProt P07607) (P07607 whole entry): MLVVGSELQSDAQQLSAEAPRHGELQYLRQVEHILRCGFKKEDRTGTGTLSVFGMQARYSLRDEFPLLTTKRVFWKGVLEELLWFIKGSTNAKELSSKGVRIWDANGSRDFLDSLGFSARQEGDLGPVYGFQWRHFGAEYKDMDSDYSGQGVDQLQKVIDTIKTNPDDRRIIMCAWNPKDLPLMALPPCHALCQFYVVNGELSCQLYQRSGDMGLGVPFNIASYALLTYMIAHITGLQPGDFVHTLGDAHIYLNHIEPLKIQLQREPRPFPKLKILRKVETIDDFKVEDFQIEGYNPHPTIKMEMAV

As for `O=c1[nH]c(=O)n([C@H]2C[C@H](O)[C@@H](CO)O2)cc1[N+](=O)[O-]`, in the test on L1210, the IC50 was determined as 0.003 µg/mL (≈ 0.011 µM).
`CC1=C(c2cn([C@H]3C[C@H](O)[C@@H](CO)O3)c(=O)[nH]c2=O)C(=O)c2ccccc2C1=O`: the MIC in the test filed under Oryctolagus cuniculus [1] was greater than 10 µg/mL; in the test listed under Oryctolagus cuniculus [2], greater than 10 µg/mL; in the test listed under Oryctolagus cuniculus [3], greater than 10 µg/mL; in the test filed under Oryctolagus cuniculus [4], 40 µg/mL (≈ 100 µM); in the test filed under Oryctolagus cuniculus [5] it was greater than 10 µg/mL; in the test filed under Oryctolagus cuniculus [7], greater than 10 µg/mL. Moreover, the MIC in the test listed under Oryctolagus cuniculus [8], in the test listed under Oryctolagus cuniculus [9] and in the test listed under Oryctolagus cuniculus [11] was greater than 10 µg/mL each time. Further, the IC50 was determined as 30.9 µg/mL (≈ 77.6 µM) in test [6], 27.4 µg/mL (≈ 68.8 µM) in the test with L1210 and 33.5 µg/mL (≈ 84.1 µM) with Raji [10].
On to `COc1c(C)c(-c2cn([C@H]3C[C@H](O)[C@@H](CO)O3)c(=O)[nH]c2=O)c(OC)c2ccccc12`, for which the IC50 in the test on Raji [12] was 55.6 µg/mL (≈ 130 µM); in test [6], greater than 100 µg/mL; in the test with L1210, greater than 100 µg/mL.
`CC1=C(C)C(=O)C(c2cn([C@H]3C[C@H](O)[C@@H](CO)O3)c(=O)[nH]c2=O)=CC1=O`: the MIC in the test listed under Oryctolagus cuniculus [1] is greater than 100 µg/mL; in the test filed under Oryctolagus cuniculus [2], 70 µg/mL (≈ 193 µM); in the test listed under Oryctolagus cuniculus [3], 70 µg/mL (≈ 193 µM); in the test listed under Oryctolagus cuniculus [4], 200 µg/mL (≈ 552 µM); in the test filed under Oryctolagus cuniculus [5] it was 70 µg/mL (≈ 193 µM); in the test filed under Oryctolagus cuniculus [7] it was greater than 100 µg/mL. For the same compound, the MIC in the test filed under Oryctolagus cuniculus [8] is 150 µg/mL (≈ 414 µM); in the test filed under Oryctolagus cuniculus [9], greater than 100 µg/mL; in the test listed under Oryctolagus cuniculus [11], greater than 100 µg/mL. In addition, the IC50 was 66.8 µg/mL (≈ 184 µM) in test [6], 40.5 µg/mL (≈ 112 µM) in the test with L1210 and greater than 100 µg/mL with Raji [10].
For the compound `COc1cc(-c2cn([C@H]3C[C@H](O)[C@@H](CO)O3)c(=O)[nH]c2=O)c(OC)c(C)c1C`, the IC50 (in test [6]; with L1210; with Raji [10]) was greater than 100 µg/mL in each case.
What is called Ki is a dissociation constant, usually derived from enzyme kinetics or from competition with a known ligand. A higher Ki goes with weaker binding. As to `CC1=C(c2cn([C@H]3C[C@H](O)[C@@H](COP(=O)(O)O)O3)c(=O)[nH]c2=O)C(=O)c2ccccc2C1=O`, the figures for the Ki at Thymidylate synthase [13] and at Thymidylate synthase [14] were 610 nM and 1900 nM, respectively.
As for `COc1cc(-c2cn([C@H]3C[C@H](O)[C@@H](COP(=O)(O)O)O3)c(=O)[nH]c2=O)c(OC)c(C)c1C`, on Thymidylate synthase [15], the Ki turned out to be 3600 nM.
`COc1c(C)c(-c2cn([C@H]3C[C@H](O)[C@@H](COP(=O)(O)O)O3)c(=O)[nH]c2=O)c(OC)c2ccccc12` returned a Ki at Thymidylate synthase [13] of 2400 nM.
The same measure, in the same setting: the value for `COc1c(C)c(C)c(OC)c(-c2cn([C@H]3C[C@H](O)[C@@H](COP(=O)(O)O)O3)c(=O)[nH]c2=O)c1C` was 1400 nM.
For the compound `CC1=C(C)C(=O)C(c2cn([C@H]3C[C@H](O)[C@@H](COP(=O)(O)O)O3)c(=O)[nH]c2=O)=CC1=O`, the results for the Ki on Thymidylate synthase [13] and on Thymidylate synthase [14] were 590 nM and 6100 nM, respectively.
The corresponding values for `CC1=C(C)C(=O)C(c2cn([C@H]3C[C@H](O)[C@@H](COP(=O)(O)O)O3)c(=O)[nH]c2=O)=C(C)C1=O` are 1300 nM and 5100 nM.
Regarding `O=C1C=CC(=O)C(c2cn([C@H]3C[C@H](O)[C@@H](CO)O3)c(=O)[nH]c2=O)=C1`, the MIC in the test listed under Oryctolagus cuniculus [1] was 20 µg/mL (≈ 59.8 µM); in the test listed under Oryctolagus cuniculus [2], 150 µg/mL (≈ 449 µM); in the test listed under Oryctolagus cuniculus [3] it was 70 µg/mL (≈ 209 µM); in the test listed under Oryctolagus cuniculus [5], 70 µg/mL (≈ 209 µM); in the test listed under Oryctolagus cuniculus [7] it was greater than 200 µg/mL; in the test filed under Oryctolagus cuniculus [8], 20 µg/mL (≈ 59.8 µM). Further, the MIC in the test listed under Oryctolagus cuniculus [9] and in the test filed under Oryctolagus cuniculus [11] was 70 µg/mL (≈ 209 µM) throughout. For the same compound, the IC50 was greater than 100 µg/mL in test [6], 35.7 µg/mL (≈ 107 µM) in the test with L1210 and greater than 100 µg/mL with Raji [10].
For `O=C1C=CC(=O)C(c2cn([C@H]3C[C@H](O)[C@@H](COP(=O)(O)O)O3)c(=O)[nH]c2=O)=C1`, the Ki at Thymidylate synthase [13] came out at 2000 nM.
With `CC1=C(C)C(=O)C(c2cn([C@H]3C[C@H](O)[C@@H](CO)O3)c(=O)[nH]c2=O)=C(C)C1=O`, the MIC in the test filed under Oryctolagus cuniculus [1] was greater than 200 µg/mL; in the test listed under Oryctolagus cuniculus [2], greater than 200 µg/mL; in the test filed under Oryctolagus cuniculus [3], greater than 200 µg/mL; in the test filed under Oryctolagus cuniculus [4], greater than 200 µg/mL; in the test listed under Oryctolagus cuniculus [5], greater than 200 µg/mL; in the test listed under Oryctolagus cuniculus [7], greater than 100 µg/mL. Moreover, the MIC in the test listed under Oryctolagus cuniculus [8], in the test filed under Oryctolagus cuniculus [9] and in the test listed under Oryctolagus cuniculus [11] was greater than 200 µg/mL in each case. Moreover, the figures for the IC50 (in test [6]; in the test with L1210; in the test with Raji [10]) were 29.7 µg/mL (≈ 78.9 µM), 65.6 µg/mL (≈ 174 µM) and 51.1 µg/mL (≈ 136 µM), respectively.
As for `COc1c(C)c(C)c(OC)c(-c2cn([C@H]3C[C@H](O)[C@@H](CO)O3)c(=O)[nH]c2=O)c1C`, the IC50 (in test [6]; in the test on L1210; with Raji [10]) was greater than 100 µg/mL throughout.
Regarding `O=c1[nH]c(=O)n([C@H]2C[C@H](O)[C@@H](CO)O2)cc1Br` [BROXURIDINE], the MIC in the test filed under Oryctolagus cuniculus [1] is 0.07 µg/mL (≈ 0.228 µM); in the test filed under Oryctolagus cuniculus [2] it was 0.02 µg/mL (≈ 0.0651 µM); in the test listed under Oryctolagus cuniculus [3], 10 µg/mL (≈ 32.6 µM); in the test listed under Oryctolagus cuniculus [4] it was greater than 400 µg/mL; in the test listed under Oryctolagus cuniculus [5], 20 µg/mL (≈ 65.1 µM); in the test filed under Oryctolagus cuniculus [7], greater than 400 µg/mL. Moreover, the MIC in the test listed under Oryctolagus cuniculus [8] stood at 0.02 µg/mL (≈ 0.0651 µM); in the test filed under Oryctolagus cuniculus [9] it was 2 µg/mL (≈ 6.51 µM); in the test filed under Oryctolagus cuniculus [11] it was 7 µg/mL (≈ 22.8 µM).
As to `O=c1[nH]c(=O)n([C@H]2C[C@H](O)[C@@H](CO)O2)cc1I` [IDOXURIDINE], the MIC in the test listed under Oryctolagus cuniculus [1] was 0.7 µg/mL (≈ 1.98 µM); in the test listed under Oryctolagus cuniculus [2], 0.7 µg/mL (≈ 1.98 µM); in the test filed under Oryctolagus cuniculus [3], 1 µg/mL (≈ 2.82 µM); in the test listed under Oryctolagus cuniculus [5], 0.7 µg/mL (≈ 1.98 µM); in the test listed under Oryctolagus cuniculus [7] it was greater than 400 µg/mL; in the test listed under Oryctolagus cuniculus [16], greater than 400 µg/mL. Further, the MIC in the test filed under Oryctolagus cuniculus [8] came out at 0.2 µg/mL (≈ 0.565 µM); in the test filed under Oryctolagus cuniculus [9], 0.7 µg/mL (≈ 1.98 µM); in the test filed under Oryctolagus cuniculus [11], 0.7 µg/mL (≈ 1.98 µM).
